These results are taken from patent US11046680B1, “Heteroaryl-substituted triazoles as APJ receptor agonists” (priority 2016, dated 2021).

Structures are written as SMILES.

The target in the assay is human APJ receptor (Homo sapiens (Human), UniProt P35414). Nature of the assay: biochemical. Particulars: [35S]GTPγS binding, CHO membranes expressing human APJ receptor; read-out: Activity hAPJ SPA EC50 IP. It counts as biochemical. The procedure: The human APJ receptor was cloned by polymerase chain reaction and the gene encoding the receptor was subcloned in pFLAG-CMV™-3 expression vector (Sigma, Saint Louis, Mo. USA) in-house at Amgen. A GTPγS binding assay was performed on membranes prepared from CHO cells stably expressing human APJ receptor. The optimum experimental conditions for the concentrations of GDP, MgCl2, and NaCl in the assay buffer were initially determined. […] Incubation was at RT for 90 min and the microplate was read using a ViewLux™ ultra HTS Microplate Imager (PerkinElmer, Inc.).
Sequence of human APJ receptor (P35414 whole entry): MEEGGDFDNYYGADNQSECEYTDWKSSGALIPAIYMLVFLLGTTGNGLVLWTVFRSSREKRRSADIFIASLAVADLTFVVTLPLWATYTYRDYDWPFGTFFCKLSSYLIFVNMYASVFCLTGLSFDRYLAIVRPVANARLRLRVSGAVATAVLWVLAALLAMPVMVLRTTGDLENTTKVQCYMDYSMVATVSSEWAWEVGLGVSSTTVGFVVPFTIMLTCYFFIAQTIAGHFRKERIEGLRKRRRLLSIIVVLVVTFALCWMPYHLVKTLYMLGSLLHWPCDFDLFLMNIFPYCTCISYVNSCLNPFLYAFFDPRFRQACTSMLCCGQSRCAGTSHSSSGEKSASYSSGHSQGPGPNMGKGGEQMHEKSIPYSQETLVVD

By EC50 is commonly meant the concentration giving half of the maximal effect. On to `COc1cccc(OC)c1-n1c(NS(=O)(=O)CC[C@@H](O)C2CCCC2)nnc1-c1nc(C)cs1` (mixture of isomers) [Example 98.0, (R)-3-Cyclopentyl-N-(4-(2,6-dimethoxyphenyl)-5-(4-methylthiazol-2-yl)-4H-1,2,4-triazol-3-yl)-3-hydroxypropane-1-sulfonamide and (S)-3-cyclopentyl-N-(4-(2,6-dimethoxyphenyl)-5-(4-methylthiazol-2-yl)-4H-1,2,4-triazol-3-yl)-3-hydroxypropane-1-sulfonamide], for which the half-maximal effective concentration (EC50) came out at 5.3 nM.

In the case of `COc1cccc(OC)c1-n1c(NS(=O)(=O)[C@H]2CCCNC2)nnc1-c1ccn(C)n1` (mixture of isomers) [Example 263.0, (3R)-N-(4-(2,6-dimethoxyphenyl)-5-(1-methyl-1H-pyrazol-3-yl)-4H-1,2,4-triazol-3-yl)-3-piperidinesulfonamide and (3S)-N-(4-(2,6-dimethoxyphenyl)-5-(1-methyl-1H-pyrazol-3-yl)-4H-1,2,4-triazol-3-yl)-3-piperidinesulfonamide], the EC50 turned out to be 180 nM.

Regarding `COc1cccc(OC)c1-n1c(NS(=O)(=O)[C@@H](C)[C@H](OC)c2ccc(C#N)cc2C#N)nnc1-c1ccn(C)n1` (mixture of isomers) [Example 264.0, (1S,2R)-1-(2,4-dicyanophenyl)-N-(4-(2,6-dimethoxyphenyl)-5-(1-methyl-1H-pyrazol-3-yl)-4H-1,2,4-triazol-3-yl)-1-methoxy-2-propanesulfonamide and (1R,2S)-1-(2,4-dicyanophenyl)-N-(4-(2,6-dimethoxyphenyl)-5-(1-methyl-1H-pyrazol-3-yl)-4H-1,2,4-triazol-3-yl)-1-methoxy-2-propanesulfonamide], the EC50 stood at 0.8 nM.

On to `COc1cccc(OC)c1-n1c(NS(=O)(=O)C[C@H](OC)c2ccc(Cl)cc2S(C)(=O)=O)nnc1-c1ccn(C)n1` (mixture of isomers) [Example 305.0, (2R)-2-(4-Chloro-2-(methylsulfonyl)phenyl)-N-(4-(2,6-dimethoxyphenyl)-5-(1-methyl-1H-pyrazol-3-yl)-4H-1,2,4-triazol-3-yl)-2-methoxyethanesulfonamide and (2S)-2-(4-chloro-2-(methylsulfonyl)phenyl)-N-(4-(2,6-dimethoxyphenyl)-5-(1-methyl-1H-pyrazol-3-yl)-4H-1,2,4-triazol-3-yl)-2-methoxyethanesulfonamide], for which the EC50 turned out to be 0.44 nM.

In the case of `COc1cccc(OC)c1-n1c(NS(=O)(=O)CC[C@@H](O)C2CCCC2)nnc1-c1cccs1` (mixture of isomers) [Example 362.0, (R)-3-Cyclopentyl-N-(4-(2,6-dimethoxyphenyl)-5-(thiophen-2-yl)-4H-1,2,4-triazol-3-yl)-3-hydroxypropane-1-sulfonamide and (S)-3-cyclopentyl-N-(4-(2,6-dimethoxyphenyl)-5-(thiophen-2-yl)-4H-1,2,4-triazol-3-yl)-3-hydroxypropane-1-sulfonamide], the EC50 amounted to 3 nM.

Regarding `COc1cccc(OC)c1-n1c(NS(=O)(=O)C[C@H](O)c2ccc(Cl)cn2)nnc1-c1ccn(C)n1` (mixture of isomers) [Example 363.0, (R)-2-(5-Chloropyridin-2-yl)-N-(4-(2,6-dimethoxyphenyl)-5-(1-methyl-1H-pyrazol-3-yl)-4H-1,2,4-triazol-3-yl)-2-hydroxyethanesulfonamide and (S)-2-(5-chloropyridin-2-yl)-N-(4-(2,6-dimethoxyphenyl)-5-(1-methyl-1H-pyrazol-3-yl)-4H-1,2,4-triazol-3-yl)-2-hydroxyethanesulfonamide], the EC50 was 1.5 nM.

As to `COc1nc[nH]c(=O)c1-n1c(NS(=O)(=O)[C@@H](C)Cc2ncc(F)cn2)nnc1-c1ccn(C)n1` (racemic) [Example 7.0, (2R)-1-(5-fluoro-2-pyrimidinyl)-N-(4-(4-methoxy-6-oxo-1,6-dihydro-5-pyrimidinyl)-5-(1-methyl-1H-pyrazol-3-yl)-4H-1,2,4-triazol-3-yl)-2-propanesulfonamide and (2S)-1-(5-fluoro-2-pyrimidinyl)-N-(4-(4-methoxy-6-oxo-1,6-dihydro-5-pyrimidinyl)-5-(1-methyl-1H-pyrazol-3-yl)-4H-1,2,4-triazol-3-yl)-2-propanesulfonamide], the EC50 is 51 nM.

On to `CNC(=O)n1ccc(-c2nnc(NS(=O)(=O)[C@@H](C)Cc3ncc(F)cn3)n2-c2c(OC)cccc2OC)n1` (racemic) [Example 72.0, (R)-3-(4-(2,6-dimethoxyphenyl)-5-(2-(5-fluoropyrimidin-2-yl)-1-methylethylsulfonamido)-4H-1,2,4-triazol-3-yl)-N-methyl-1H-pyrazole-1-carboxamide (S)-3-(4-(2,6-dimethoxyphenyl)-5-(2-(5-fluoropyrimidin-2-yl)-1-methylethylsulfonamido)-4H-1,2,4-triazol-3-yl)-N-methyl-1H-pyrazole-1-carboxamide], for which the EC50 was found to be 41 nM.

`COc1cccc(OC)c1-n1c(NS(=O)(=O)C[C@@H](O)c2ccc(F)cc2F)nnc1-c1ccn(C)n1` (racemic) [Example 116.0, (S)-2-(2,4-difluorophenyl)-N-(4-(2,6-dimethoxyphenyl)-5-(1-methyl-1H-pyrazol-3-yl)-4H-1,2,4-triazol-3-yl)-2-hydroxyethanesulfonamide and (R)-2-(2,4-difluorophenyl)-N-(4-(2,6-dimethoxyphenyl)-5-(1-methyl-1H-pyrazol-3-yl)-4H-1,2,4-triazol-3-yl)-2-hydroxyethanesulfonamide]: the EC50 was determined as 2.6 nM.

Take `COc1cccc(OC)c1-n1c(NS(=O)(=O)[C@@H](C)Cc2ncc(C)cn2)nnc1-c1nc(C)cs1` (single isomer, unassigned) [Example 8.0, (2S)-N-(4-(2,6-dimethoxyphenyl)-5-(4-methyl-1,3-thiazol-2-yl)-4H-1,2,4-triazol-3-yl)-1-(5-methyl-2-pyrimidinyl)-2-propanesulfonamide or (2R)-N-(4-(2,6-dimethoxyphenyl)-5-(4-methyl-1,3-thiazol-2-yl)-4H-1,2,4-triazol-3-yl)-1-(5-methyl-2-pyrimidinyl)-2-propanesulfonamide]: the EC50 worked out at 0.75 nM.

As to `COc1cccc(OC)c1-n1c(NS(=O)(=O)[C@@H](C)Cc2ncc(C)cn2)nnc1-c1nc(C)cs1` (single isomer, unassigned) [Example 9.0, (2S)-N-(4-(2,6-dimethoxyphenyl)-5-(4-methyl-1,3-thiazol-2-yl)-4H-1,2,4-triazol-3-yl)-1-(5-methyl-2-pyrimidinyl)-2-propanesulfonamide or (2R)-N-(4-(2,6-dimethoxyphenyl)-5-(4-methyl-1,3-thiazol-2-yl)-4H-1,2,4-triazol-3-yl)-1-(5-methyl-2-pyrimidinyl)-2-propanesulfonamide], the EC50 was found to be 11 nM.

For the compound `COc1cccc(OC)c1-n1c(NS(=O)(=O)[C@H](C)Cc2ccc(C#N)cn2)nnc1-c1nc(C)cs1` (single isomer, unassigned) [Example 11.0, (2R)-1-(5-cyano-2-pyridinyl)-N-(4-(2,6-dimethoxyphenyl)-5-(4-methyl-1,3-thiazol-2-yl)-4H-1,2,4-triazol-3-yl)-2-propanesulfonamide or (2S)-1-(5-cyano-2-pyridinyl)-N-(4-(2,6-dimethoxyphenyl)-5-(4-methyl-1,3-thiazol-2-yl)-4H-1,2,4-triazol-3-yl)-2-propanesulfonamide], the concentration for a half-maximal effect (EC50) amounted to 0.8 nM.

For the compound `COc1cccc(OC)c1-n1c(NS(=O)(=O)[C@H](C)Cc2ccc(C#N)cn2)nnc1-c1nc(C)cs1` (single isomer, unassigned) [Example 12.0, (2R)-1-(5-Cyano-2-pyridinyl)-N-(4-(2,6-dimethoxyphenyl)-5-(4-methyl-1,3-thiazol-2-yl)-4H-1,2,4-triazol-3-yl)-2-propanesulfonamide or (2S)-1-(5-cyano-2-pyridinyl)-N-(4-(2,6-dimethoxyphenyl)-5-(4-methyl-1,3-thiazol-2-yl)-4H-1,2,4-triazol-3-yl)-2-propanesulfonamide], the half-maximal effective concentration (EC50) turned out to be 9.4 nM.

As for `COCC[C@@H]([C@H](C)c1ncc(F)cn1)S(=O)(=O)Nc1nnc(-c2nc(C)cs2)n1-c1c(OC)cccc1OC` (single isomer, unassigned) [Example 19.0], the EC50 amounted to 6.3 nM.

`COCC[C@@H]([C@H](C)c1ncc(F)cn1)S(=O)(=O)Nc1nnc(-c2nc(C)cs2)n1-c1c(OC)cccc1OC` (single isomer, unassigned) [Example 21.0]: the concentration for a half-maximal effect (EC50) was found to be 90 nM.

On to `COc1cccc(OC)c1-n1c(NS(=O)(=O)[C@H](C)Cc2ncc(F)cn2)nnc1-c1cnccn1` (single isomer, unassigned) [Example 29.0, (R)-N-(4-(2,6-dimethoxyphenyl)-5-(pyrazin-2-yl)-4H-1,2,4-triazol-3-yl)-1-(5-fluoropyrimidin-2-yl)propane-2-sulfonamide or (S)-N-(4-(2,6-dimethoxyphenyl)-5-(pyrazin-2-yl)-4H-1,2,4-triazol-3-yl)-1-(5-fluoropyrimidin-2-yl)propane-2-sulfonamide], for which the concentration giving a half-maximal response (EC50) is 47 nM.

Regarding `COc1cccc(OC)c1-n1c(NS(=O)(=O)[C@H](C)Cc2ncc(F)cn2)nnc1-c1cnccn1` (single isomer, unassigned) [Example 30.0, (R)-N-(4-(2,6-dimethoxyphenyl)-5-(pyrazin-2-yl)-4H-1,2,4-triazol-3-yl)-1-(5-fluoropyrimidin-2-yl)propane-2-sulfonamide or (S)-N-(4-(2,6-dimethoxyphenyl)-5-(pyrazin-2-yl)-4H-1,2,4-triazol-3-yl)-1-(5-fluoropyrimidin-2-yl)propane-2-sulfonamide], the EC50 stood at 350 nM.
